Measurements taken from patent US9890142B2, “PDE4 inhibitor” (Meiji Seika Pharma Co., Ltd., priority 2013, dated 2018).

Test system: PDE4
Assay: Evaluation of PDE4 inhibition (scintillation proximity assay)
Type: biochemical
Details: inhibition rate relative to control, test compound at 1 μM
Protocol: Test Example 1 Evaluation of PDE4 Inhibition
The PDE4 inhibitory activity was measured by using scintillation proximity assay (SPA) as follows: one in which a sample compound dissolved in dimethyl sulfoxide was diluted 10-fold with a buffer solution for reaction containing 50 mM Tris-HCl, pH 7.5, 8.3 mM MgCl2, 1.7 mM EDTA and 0.3 mg/mL bovine serum albumin (BSA) was added at 10 μL/well to a 96-well assay plate. Further, PDE4 diluted 750-fold with a buffer solution for reaction was added at 50 μL/well, then [2,8-^3H]-Adenosine-3′,5′-cyclic phosphate triethylammonium salt diluted 1000-fold with a buffer solution for reaction was added at 40 μL/well, and the plate was left standing at room temperature for 120 minutes. Thereafter, a suspension of RNA binding YSi-SPA Beads containing 200 mM ZnSO4 was added at 50 μL/well, and the plate was left standing at room temperature for 15 minutes to adsorb the enzyme reaction product onto the Beads. Thereafter, the radioactivity was measured with a liquid scintillation counter for 96-well plates. When one supplemented with only a buffer solution for reaction without adding the enzyme preparation was used as a blank and one supplemented with the enzyme preparation but supplemented with only dimethyl sulfoxide instead of the sample solution was used as a control, the inhibition rate of the test compound relative to the control was calculated according to the following calculation expression: Inhibition rate (%)={1−(Numeric value from the addition of each sample−Blank value)/(Control value−Blank value)}×100

| SMILES | PDE4 inhibitory activity (1 μM (%)) [%] |
| --- | --- |
| C[C@H]1CNCCN1c1nc2cc(Cl)cc(C3CCCO3)c2o1 (mixture of isomers) [Example 80, 5-Chloro-2-((S)-2-methylpiperazin-1-yl)-7-(tetrahydrofuran-2-yl)benzoxazole] | 42 |
| CC(C)c1cc(Cl)cc2nc(N3CCNC[C@@H]3C)oc12 [Example 1, (S)-5-Chloro-7-isopropyl-2-(2-methylpiperazin-1-yl)benzoxazole] | 87 |
| COc1cc(Cl)cc2nc(N3CCNC[C@@H]3C)oc12 [Example 2, (S)-5-Chloro-7-methoxy-2-(2-methylpiperazin-1-yl)benzoxazole] | 23 |
| CC(=O)c1cc(Cl)cc2nc(N3CCNC[C@@H]3C)oc12 [Example 3, (S)-7-Acetyl-5-chloro-2-(2-methylpiperazin-1-yl)benzoxazole] | 50 |
| Cc1cc(Cl)cc2nc(N3[C@H](C)CNC[C@@H]3C)oc12 [Example 4, meso-5-Chloro-2-(2,6-cis-dimethylpiperazin-1-yl)-7-methylbenzoxazole] | 18 |
| Cc1cc(F)cc2nc(N3CCNC[C@@H]3C)oc12 [Example 5, (S)-5-Fluoro-7-methyl-2-(2-methylpiperazin-1-yl)benzoxazole] | 25 |
| Cc1cc(Br)cc2nc(N3CCNC[C@@H]3C)oc12 [Example 6, (S)-5-Bromo-7-methyl-2-(2-methylpiperazin-1-yl)benzoxazole] | 36 |
| CC(C)Oc1cc(Cl)cc2nc(N3CCNC[C@@H]3C)oc12 [Example 7, (S)-5-Chloro-7-isopropoxy-2-(2-methylpiperazin-1-yl)benzoxazole] | 59 |
| CCc1cc(Cl)cc2nc(N3CCNC[C@@H]3C)oc12 [Example 8, (S)-5-Chloro-7-ethyl-2-(2-methylpiperazin-1-yl)benzoxazole] | 79 |
| CCOC(=O)c1cc(Cl)cc2nc(N3CCNC[C@@H]3C)oc12 [Example 9, (S)-5-Chloro-7-ethoxycarbonyl-2-(2-methylpiperazin-1-yl)benzoxazole] | 50 |
| C[C@H]1CNCCN1c1nc2cc(Cl)cc(C#N)c2o1 [Example 10, (S)-5-Chloro-7-cyano-2-(2-methylpiperazin-1-yl)benzoxazole] | 36 |
| CCc1cc(Cl)cc2nc(N3CCNC[C@@H]3C(C)C)oc12 [Example 11, (S)-5-Chloro-7-ethyl-2-(2-isopropylpiperazin-1-yl)benzoxazole] | 26 |
| CCc1cc(Cl)cc2nc(N3CCNC[C@@H]3CC(C)C)oc12 [Example 12, (S)-5-Chloro-7-ethyl-2-(2-isobutylpiperazin-1-yl)benzoxazole] | <10 |
| CCCC[C@H]1CNCCN1c1nc2cc(Cl)cc(CC)c2o1 [Example 13, (S)-2-(2-n-Butylpiperazin-1-yl)-5-chloro-7-ethylbenzoxazole] | <10 |
| CCc1cc(Cl)cc2nc(N3CCNC[C@@H]3CC)oc12 [Example 14, (S)-5-Chloro-7-ethyl-2-(2-ethylpiperazin-1-yl)benzoxazole] | 37 |
| C[C@H]1CNCCN1c1nc2cc(Cl)cc(CO)c2o1 [Example 15, (S)-5-Chloro-7-hydroxymethyl-2-(2-methylpiperazin-1-yl)benzoxazole] | 21 |
| C[C@H]1CNCCN1c1nc2cc(Cl)cc(-c3ccsc3)c2o1 [Example 16, (S)-5-Chloro-2-(2-methylpiperazin-1-yl)-7-(thiophen-3-yl)benzoxazole] | 75 |

| SMILES | PDE4 inhibitory activity (1 μM (%)) [%] |
| --- | --- |
| C[C@H]1CNCCN1c1nc2cc(Cl)cc(-c3ccoc3)c2o1 [Example 17, (S)-5-Chloro-7-(furan-3-yl)-2-(2-methylpiperazin-1-yl)benzoxazole] | 84 |
| C[C@H]1CNCCN1c1nc2cc(Cl)cc(-c3cccs3)c2o1 [Example 18, (S)-5-Chloro-2-(2-methylpiperazin-1-yl)-7-(thiophen-2-yl)benzoxazole] | 76 |
| C[C@H]1CNCCN1c1nc2cc(Cl)cc(-c3ccccc3)c2o1 [Example 19, (S)-5-Chloro-2-(2-methylpiperazin-1-yl)-7-phenylbenzoxazole] | 76 |
| C[C@H]1CNCCN1c1nc2cc(Cl)cc(N3CCCC3)c2o1 [Example 20, (S)-5-Chloro-2-(2-methylpiperazin-1-yl)-7-(pyrrolidin-1-yl)benzoxazole] | 71 |
| C[C@H]1CNCCN1c1nc2cc(Cl)cc(N3CCOCC3)c2o1 [Example 21, (S)-5-Chloro-2-(2-methylpiperazin-1-yl)-7-(morpholin-1-yl)benzoxazole] | 59 |
| C[C@H]1CNCCN1c1nc2cc(Cl)cc(N3CCCCC3)c2o1 [Example 22, (S)-5-Chloro-2-(2-methylpiperazin-1-yl)-7-(piperidin-1-yl)benzoxazole] | 40 |
| C[C@H]1CNCCN1c1nc2cc(Cl)cc(-c3ccco3)c2o1 [Example 23, (S)-5-Chloro-7-(furan-2-yl)-2-(2-methylpiperazin-1-yl)benzoxazole] | 95 |
| C[C@H]1CNCCN1c1nc2cc(Cl)cc(NC3CCCC3)c2o1 [Example 24, (S)-5-Chloro-7-(cyclopentylamino)-2-(2-methylpiperazin-1-yl)benzoxazole] | 27 |
| CCN(CC)c1cc(Cl)cc2nc(N3CCNC[C@@H]3C)oc12 [Example 25, (S)-5-Chloro-7-diethylamino-2-(2-methylpiperazin-1-yl)benzoxazole] | 53 |
| C[C@H]1CNCCN1c1nc2cc(Cl)cc(N(C)C)c2o1 [Example 26, (S)-5-Chloro-7-dimethylamino-2-(2-methylpiperazin-1-yl)benzoxazole] | 61 |
| C[C@H]1CNCCN1c1nc2cc(Cl)cc(C3CC3)c2o1 [Example 27, (S)-5-Chloro-7-cyclopropyl-2-(2-methylpiperazin-1-yl)benzoxazole] | 85 |
| C[C@H]1CNCCN1c1nc2cc(Cl)cc(OC3CCCC3)c2o1 [Example 28, (S)-5-Chloro-7-(cyclopentyloxy)-2-(2-methylpiperazin-1-yl)benzoxazole] | 81 |
| CCOc1cc(Cl)cc2nc(N3CCNC[C@@H]3C)oc12 [Example 29, (S)-5-Chloro-7-ethoxy-2-(2-methylpiperazin-1-yl)benzoxazole] | 63 |
| CCCOc1cc(Cl)cc2nc(N3CCNC[C@@H]3C)oc12 [Example 30, (S)-5-Chloro-2-(2-methylpiperazin-1-yl)-7-n-propoxybenzoxazole] | 61 |
| C[C@H]1CNCCN1c1nc2cc(Cl)cc(C3CCCC3)c2o1 [Example 31, (S)-5-Chloro-7-cyclopentyl-2-(2-methylpiperazin-1-yl)benzoxazole] | 51 |
| CCCCc1cc(Cl)cc2nc(N3CCNC[C@@H]3C)oc12 [Example 32, (S)-7-n-Butyl-5-chloro-2-(2-methylpiperazin-1-yl)benzoxazole] | 62 |
| C[C@H]1CNCCN1c1nc2cc(Cl)cc(-n3cccn3)c2o1 [Example 33, (S)-5-Chloro-2-(2-methylpiperazin-1-yl)-′7-(1H-pyrazol-1-yl)benzoxazole] | 93 |
